Test results as given in ChEMBL document CHEMBL1158646, “Potential Antitumor Agents: A Cytotoxic Cardenolide From Coronilla varia” (1979).
Converted amounts (≈) assume the structure as drawn. The source made the active and inactive calls. The rule behind the calls is not given here.

What was measured:
[1] = Cytotoxicity against human 9KB cells; type: functional; details: read-out: ED50 (the source's name)
L1210 = test: Cytotoxicity against mouse L1210 cells; type: functional, cell-based
P388 [2] = test: Antitumor activity against mouse P388 cells in mouse assessed as median survival time at 1.25 mg/kg relative to control; type: functional
B16 = test: Cytotoxicity against mouse B16 cells; type: functional, cell-based
Lewis lung carcinoma = test: Cytotoxicity against mouse LLC cells; type: functional, cell-based
P388 [3] = test: Antitumor activity against mouse P388 cells in mouse assessed as median survival time at 8 mg/kg relative to control; type: functional, organism-based; parameters: dose 8 mg/kg

| SMILES | EC50 [1] [µg/mL] | Activity (L1210) | T/C (P388 [2]) [%] | Activity (B16) | Activity (Lewis lung carcinoma) | Activity (P388 [3]) |
| --- | --- | --- | --- | --- | --- | --- |
| C[C@]12CC[C@H]3[C@@H](CCC4=C[C@@H](O[C@@H]5OC[C@@H](O[C@@H]6O[C@H](CO)[C@@H](O)[C@H](O)[C@H]6O)[C@H](O)[C@H]5O)CC[C@@]43C=O)[C@@]1(O)CC[C@@H]2C1=CC(=O)OC1 [HYRCANOSIDE] | 0.1 (≈ 0.147 µM) | inactive | 133 | inactive | inactive |  |
| C[C@]12CC[C@H]3[C@@H](CCC4=C[C@@H](O[C@@H]5OC[C@@H](O)[C@H](O)[C@H]5O)CC[C@@]43C=O)[C@@]1(O)CC[C@@H]2C1=CC(=O)OC1 [DEGLUCOHYRCANOSIDE] | 0.02 (≈ 0.0386 µM) |  |  |  |  | inactive |
